From patent US20100240603A1, “EXPRESSION INHIBITOR OF NUCLEAR TRANSCRIPTION FACTOR AP-1 AND PHARMACEUTICALS AND PRODUCTS USING THE SAME” (ARKRAY, INC., priority 2006, published 2010) come the findings set out here.

In experiment [1] the test system is nuclear transcription factor AP-1. In words: nuclear transcription factor AP-1 SEAP reporter assay in TPA-stimulated HeLa cells. The format is cell-based. Particulars: TPA 4 μg/mL, 24 h. As for the experimental part: (§1) HeLa cells were tripsinized and centrifuged at 4° C. and 1,000 rpm for 3 minutes. The collected Hela cells were seeded on a 30-mm dish so that the density was 2×10^5 cells/well, which served as a test plate. With the test plate being placed at 37° C. for 12 hours in the presence of 5% CO2, the cells were cultured and were then transformed. For the transformation, two types of vectors were transfected into the aforementioned cells using a transformation reagent (trade name: Effectene Transfection Reagent, QIAGEN). The vectors used herein were pAP-1 (PMA)-SEAP (trade name) (CLONTECH) (0.4 μg) and pLuc-control (trade name) (CLONTECH) (0.02 μg). The cells transfected with both of the vectors were cultured at 37° C. for 16 hours in the presence of 5% CO2, and then the cultured cells were detached from the aforementioned test plate using trypsin. The detached cells were dispensed into a 96-well plate so that 0.2×10^4 cells were contained in each well. The cells thus dispensed were cultured for two hours. […] The medium thus collected was evaluated for the secreated alkaline phosphatase (SEAP) activity based on the activity of the nuclear transcription factor AP-1 contained in the medium, using a kit (trade name: Great EscAPe SEAP kit, CLONTECK). […]

Experiment [2] deals with NF-κB. As to the kind of experiment: NF-κB SEAP reporter assay in TNF-alpha-stimulated HeLa cells. The settings on record: TNF-alpha 40 ng/mL, 24 h. In kind it is cell-based. As for the experimental part: as §1, with “pNF-κB-SEAP” for “pAP-1 (PMA)-SEAP”, “NF-κB” for “the nuclear transcription factor AP-1”, “medium” for “medium,”

Converted amounts (≈) assume the structure as drawn.

Broadly, the IC50 is the point on the concentration scale where inhibition reaches its midpoint. Regarding `CC(O)(CC(=O)O)CC(=O)OCC1OC(Oc2cc(O)c3c(=O)cc(-c4ccc(O)cc4)oc3c2)C(O)C(O)C1O` (stereo not shown) [chamaemeloside, apigenin 7-glucoside-6″-(3′″-hydroxy-3′″-methyl-glutarate)], the “expression of the nuclear transcription factor AP-1 (FIG. 2)” value in experiment [1] (HeLa cells, 10, 5.0, 2.5, 1.0 μg/mL) is “suppressed (inhibited) in a concentration-dependent manner”. The IC50 in experiment [1] (Homo sapiens, HeLa cells transfected with pAP-1 (PMA)-SEAP and pLuc-control, corrected by luciferase activity, read-out: IC50 of inhibition of nuclear transcription factor AP-1 expression (SEAP activity)) is 5 µg/mL (≈ 8.67 µM); in experiment [2] (Homo sapiens, HeLa cells transfected with pNF-κB-SEAP and pLuc-control, corrected by luciferase activity, read-out: IC50 of inhibition of NF-κB expression (SEAP activity)), 80 µg/mL (≈ 139 µM). Moreover, the “expression of NF-κB (FIG. 3)” value in experiment [2] (HeLa cells) is “inhibited the expression of NF-κB in a concentration-dependent manner”.
